Assay results published in patent US11083732B2, “Use of negative modulators of GABA receptors containing alpha5 subunits as fast acting antidepressants” (University of Maryland, Baltimore, priority 2014, dated 2021).

Columns and labels:
[1] = test system: rats subjected to chronic restraint stress; assay: Sucrose preference test (SPT) after chronic restraint stress (CRS); assay type: in vivo, rat; details: MRK-016 3 mg/kg
Source text: (§1) MRK-016 rapidly reverses loss of sucrose preference and social interaction behaviors after chronic restraint stress (FIG. 9). […] This persisted for 7 days despite further stress exposure. and in the same animals after an additional week of CRS and 7 days after the injection of MRK-016.
(§2) Chronic restraint stress (CRS). Male Sprague Dawley rats (4-5 weeks-old; Harlan Laboratories) were placed in appropriately sized restraint tubes, highly restricting their movement for periods of four hours in a brightly lit lab, every day for ten days during the light phase of their diurnal cycle (Lim et al., 2012).
Sucrose preference test (SPT). Rats were given a choice between two bottles containing tap water or a 1% sucrose solution (Rygula et al., 2006). Testing was conducted overnight (16 hours), including the full duration of their dark phase. Animals were first trained with both bottles while group-housed. For subsequent tests, including during the baseline period, animals were individually housed. Sucrose preference was calculated as amount of the sucrose solution consumed as a percentage of the total amount of liquid consumed.
Drugs/stats. L-655,708 was purchased from Tocris Bioscience (R&D Systems, Minneapolis, Minn.) and prepared at a concentration of 5 mM in 75% saline/25% DMSO. […] This dose is sufficient to occupy about 70% of forebrain binding sites (Atack et al., 2005)
(§3) Several hedonic behaviors in rodents are sensitive to chronic stress and are restored by chronic, but not acute, administration of SSRIs, providing one means to screen for potential antidepressant compounds. First, it was determined whether L-655,708 would rapidly (<24 hrs) restore normal hedonic behavior following chronic restraint stress (Watanabe et al., 1992; Lim et al., 2012), consistent with the rapid antidepressant-like actions of ketamine (Li et al., 2011). Baseline measurements were first made of social interaction and sucrose preference, and then 4-5 week old rats were subjected to ten days of CRS. […]

[2] = test system: rats subjected to chronic restraint stress; assay: Social interaction test (SIT) after chronic restraint stress (CRS); assay type: in vivo, rat; details: MRK-016 3 mg/kg
Source text: as §1, §2
Social interaction test (SIT). As described previously (Berton et al., 2006), rats were placed in a plastic enclosure (82×82 cm) with a 5×5 grid of squares (16.4×16.4 cm) visible underneath the clear plastic flooring. A small translucent perforated plastic box (20×16 cm) was placed against the center of one wall of the arena. During the testing conditions white overhead fluorescent lighting was used to illuminate the arena. A video camera positioned 170 cm above the floor of the arena was used to track the movements of the rats during the experiment.
Each test consisted of a “target-absent” trial followed by a “target-present” trial. During testing, an individual test rat was placed in the center of the arena and, after 30s of adaptation, the rat's movements were recorded with the video camera for 2.5 minutes. […]
Results were quantified as the percentage of time spent in the “interaction zone” (the five grid squares immediately surrounding the plastic cage) as measured for both the “target-absent” and “target-present” trials. […]
as §3, with “2011).” for “2011). Baseline measurements were first made of social interaction and sucrose preference, and then 4-5 week old rats were subjected to ten days of CRS.”

TA-CA1 synapses = assay: Anpirtoline (5-HT1BR agonist) potentiation of TA-CA1 EPSP slope in hippocampal slices; parameters: species or system rat; details: slices after CUS
Method: Experiment B. Do alpha5 GABA-NAMs restore 5-HT1BR-mediated potentiation? One can consider whether alpha5 GABA-NAMs reverse another phenotypic alteration of stressed TA-CA 1 synapses: amplification and persistence of responses to the 5-HT1BR agonist anpirtoline (FIG. 3A) (Cai et al., 2013). Slices are prepared from the four groups described in Experiment A. Anpirtoline (501.1M) is bath applied for 60 min, followed by a 90 min washout period. In specific embodiments, anpirtoline potentiation of […], vehicle-injected controls and that injection of alpha5 GABA-NAM […], but has no effect in control rats (see FIG. 3B).

[3] = test system: depressive symptoms in humans; details: acute administration; cited from earlier work
[4] = test system: chronically stressed animals; details: Li et al., 2011; cited from earlier work

## Cc1cc(-c2nncc3c(C(C)(C)C)c(OCc4ncnn4C)nn23)no1 [MRK-016, 3-tert-Butyl-7-(5-methylisooxazol-3-yl)-2-(1-methyl-1H-1,2,4-triazol-5-ylmethoxy)-pyrazolo[1,5-d]-[1,2,4] triazine]
[1]; CRS continued
  persistence of effect on sucrose preference: 7 days
[1]; CRS, 24 hours after treatment, vs baseline
  sucrose preference: not significantly different than the baseline before stress exposure
[2]; CRS, 24 hours after treatment, vs pre-stress
  social interaction scores: not significantly different than the pre-stress condition
[2]; despite further stress exposure
  persistence of effect on social interaction: 7 days

## Clc1cccc(SC2CCNCC2)n1 [anpirtoline]
TA-CA1 synapses
  persistence of potentiation after washout: > 60 min
TA-CA1 synapses; vs control slices
  potentiation of TA-CA1 EPSP slope: larger

## CNC1(c2ccccc2Cl)CCCCC1=O (stereo not drawn) [ketamine]
[3]
  persistence of antidepressant effects: up to two weeks
  time to improved mood and reduced depressive symptoms: 1 to 2 h
[4]
  time to restoration of sucrose preference and novelty suppressed feeding behaviors: 24 h
